Measured values taken from ChEMBL document CHEMBL3856233, “Identification of (R)-(2-Chloro-3-(trifluoromethyl)phenyl)(1-(5-fluoropyridin-2-yl)-4-methyl-6,7-dihydro-1H-imidazo[4,5-c]pyridin-5(4H)-yl)methanone (JNJ 54166060), a Small Molecule Antagonist of the P2X7 receptor” (J Med Chem, 2016).
In brackets after ≈: the same amount, converted by molar mass.

Columns and labels:
P2X purinoceptor 7 [1] = target: T1, P2X purinoceptor 7 (Homo sapiens, UniProt Q99572); test: Antagonist activity at recombinant human P2X7 receptor expressed in human 1321N1 cells assessed as inhibition of Bz-ATP-induced Ca2+ flux preincubated for 30 mins followed by agonist addition measured after 180 sec by calcium-4 dye based FLIPR assay; format: cell-based
T1 sequence (Q99572 whole entry): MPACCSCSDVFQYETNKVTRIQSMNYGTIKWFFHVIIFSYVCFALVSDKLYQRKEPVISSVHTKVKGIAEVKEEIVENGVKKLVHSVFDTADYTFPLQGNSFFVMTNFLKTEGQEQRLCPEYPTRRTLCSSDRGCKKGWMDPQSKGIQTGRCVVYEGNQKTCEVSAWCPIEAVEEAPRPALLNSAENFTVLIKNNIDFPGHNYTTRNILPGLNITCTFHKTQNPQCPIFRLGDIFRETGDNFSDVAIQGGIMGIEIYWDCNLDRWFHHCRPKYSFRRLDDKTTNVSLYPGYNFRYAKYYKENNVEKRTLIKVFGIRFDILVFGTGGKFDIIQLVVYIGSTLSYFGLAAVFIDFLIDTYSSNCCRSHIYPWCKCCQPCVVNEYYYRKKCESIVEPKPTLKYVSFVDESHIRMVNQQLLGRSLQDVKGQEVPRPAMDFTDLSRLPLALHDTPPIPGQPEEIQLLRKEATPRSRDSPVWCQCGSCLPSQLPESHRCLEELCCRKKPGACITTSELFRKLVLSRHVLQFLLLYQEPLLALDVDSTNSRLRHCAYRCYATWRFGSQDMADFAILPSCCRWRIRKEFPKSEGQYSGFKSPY

P2X purinoceptor 7 [2] = target: T2, P2X purinoceptor 7 (Rattus norvegicus, UniProt Q64663); test: Antagonist activity at recombinant rat P2X7 receptor expressed in human 1321N1 cells assessed as inhibition of Bz-ATP-induced Ca2+ flux preincubated for 30 mins followed by agonist addition measured after 180 sec by calcium-4 dye based FLIPR assay; format: cell-based
T2 sequence (Q64663 whole entry): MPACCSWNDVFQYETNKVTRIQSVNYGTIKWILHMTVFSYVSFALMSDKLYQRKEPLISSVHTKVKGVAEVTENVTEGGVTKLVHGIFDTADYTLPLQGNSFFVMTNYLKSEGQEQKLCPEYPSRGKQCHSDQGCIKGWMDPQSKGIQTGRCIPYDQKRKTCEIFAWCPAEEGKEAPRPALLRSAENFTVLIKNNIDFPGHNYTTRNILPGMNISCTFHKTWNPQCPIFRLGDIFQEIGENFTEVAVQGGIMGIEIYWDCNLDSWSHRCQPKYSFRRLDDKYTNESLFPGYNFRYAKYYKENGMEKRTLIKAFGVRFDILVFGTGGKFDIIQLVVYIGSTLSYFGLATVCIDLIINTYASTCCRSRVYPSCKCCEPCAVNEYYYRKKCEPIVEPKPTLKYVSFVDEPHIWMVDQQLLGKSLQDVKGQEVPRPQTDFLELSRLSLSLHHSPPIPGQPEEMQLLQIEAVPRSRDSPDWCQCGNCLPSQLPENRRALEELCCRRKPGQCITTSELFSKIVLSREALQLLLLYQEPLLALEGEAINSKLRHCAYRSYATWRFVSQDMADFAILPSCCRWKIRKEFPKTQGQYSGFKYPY

[3] = Solubility of the compound in phosphate buffer at pH 7 at room temperature after 3 days
[4] = Protein binding in rat plasma at 1 uM after 6 hrs by LC/MS/MS based equilibrium dialysis method; format: ADME, cell-free; details: read-out: PPB (converted)
[5] = Solubility of compound in phosphate buffer at pH 2 at room temperature after 3 days
[6] = target: Voltage-gated inwardly rectifying potassium channel KCNH2 (Homo sapiens, UniProt Q12809); test: Displacement of [3H]astemizole from human ERG expressed in HEK293 cells by competitive binding assay; format: cell-based
Chain of Voltage-gated inwardly rectifying potassium channel KCNH2 (Q12809 whole entry): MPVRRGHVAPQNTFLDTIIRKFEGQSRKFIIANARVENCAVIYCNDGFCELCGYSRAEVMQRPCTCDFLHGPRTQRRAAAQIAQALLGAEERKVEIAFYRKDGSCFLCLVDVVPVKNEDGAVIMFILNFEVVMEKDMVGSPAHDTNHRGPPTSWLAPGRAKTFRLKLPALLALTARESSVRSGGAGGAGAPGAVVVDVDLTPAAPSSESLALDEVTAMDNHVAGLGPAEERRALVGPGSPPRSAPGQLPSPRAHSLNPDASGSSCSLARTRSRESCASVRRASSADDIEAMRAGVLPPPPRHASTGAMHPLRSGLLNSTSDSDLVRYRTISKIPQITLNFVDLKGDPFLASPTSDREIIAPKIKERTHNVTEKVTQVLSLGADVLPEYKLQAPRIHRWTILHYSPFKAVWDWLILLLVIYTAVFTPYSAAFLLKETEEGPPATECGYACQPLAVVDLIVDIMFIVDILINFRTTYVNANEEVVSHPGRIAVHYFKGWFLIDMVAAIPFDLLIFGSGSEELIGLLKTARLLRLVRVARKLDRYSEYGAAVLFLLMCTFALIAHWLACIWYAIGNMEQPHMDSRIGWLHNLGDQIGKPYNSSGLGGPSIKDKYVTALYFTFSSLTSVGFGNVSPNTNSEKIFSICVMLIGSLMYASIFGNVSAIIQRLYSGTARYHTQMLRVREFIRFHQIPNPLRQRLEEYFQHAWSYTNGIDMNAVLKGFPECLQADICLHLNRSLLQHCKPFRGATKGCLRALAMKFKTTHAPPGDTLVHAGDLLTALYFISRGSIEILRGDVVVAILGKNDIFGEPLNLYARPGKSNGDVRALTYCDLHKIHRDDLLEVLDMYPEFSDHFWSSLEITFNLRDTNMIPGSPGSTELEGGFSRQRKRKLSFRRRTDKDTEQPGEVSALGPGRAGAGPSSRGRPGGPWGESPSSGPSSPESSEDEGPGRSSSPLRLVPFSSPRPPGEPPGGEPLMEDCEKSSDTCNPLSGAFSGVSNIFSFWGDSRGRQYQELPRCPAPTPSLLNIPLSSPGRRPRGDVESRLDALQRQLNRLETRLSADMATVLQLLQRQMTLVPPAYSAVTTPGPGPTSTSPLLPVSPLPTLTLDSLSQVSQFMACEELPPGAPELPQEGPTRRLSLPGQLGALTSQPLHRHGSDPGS

[7] = Protein binding in human plasma at 1 uM after 6 hrs by LC/MS/MS based equilibrium dialysis method; format: ADME, cell-free; details: read-out: PPB (converted)
P2X purinoceptor 7 [8] = target: T3, P2X purinoceptor 7 (Mus musculus, UniProt Q9Z1M0); test: Antagonist activity at recombinant mouse P2X7 receptor expressed in human 1321N1 cells assessed as inhibition of Bz-ATP-induced Ca2+ flux preincubated for 30 mins followed by agonist addition measured after 180 sec by calcium-4 dye based FLIPR assay; format: cell-based
T3 sequence (Q9Z1M0 whole entry): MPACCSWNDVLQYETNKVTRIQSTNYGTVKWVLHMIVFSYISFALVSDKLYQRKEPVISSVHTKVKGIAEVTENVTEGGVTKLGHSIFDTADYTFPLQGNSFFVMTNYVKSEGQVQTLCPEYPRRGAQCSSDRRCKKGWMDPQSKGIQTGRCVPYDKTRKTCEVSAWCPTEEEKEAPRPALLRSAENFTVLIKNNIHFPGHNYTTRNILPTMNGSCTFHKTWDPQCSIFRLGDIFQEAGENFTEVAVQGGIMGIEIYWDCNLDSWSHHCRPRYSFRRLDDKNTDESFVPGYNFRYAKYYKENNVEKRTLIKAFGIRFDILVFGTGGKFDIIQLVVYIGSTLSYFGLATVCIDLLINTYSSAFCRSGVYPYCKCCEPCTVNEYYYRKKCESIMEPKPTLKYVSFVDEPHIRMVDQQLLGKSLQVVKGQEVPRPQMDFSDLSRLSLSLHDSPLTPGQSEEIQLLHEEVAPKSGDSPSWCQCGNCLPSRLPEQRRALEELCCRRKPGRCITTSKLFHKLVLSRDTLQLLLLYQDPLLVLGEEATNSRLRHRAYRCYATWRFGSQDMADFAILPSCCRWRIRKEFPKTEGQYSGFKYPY

Cytochrome P450 2C19 = Cytochrome P450 2C19 (Homo sapiens, UniProt P33261); test: Inhibition of CYP2C19 in human liver microsomes using S-mephenytoin as substrate after 15 mins by LC/MS/MS analysis; format: ADME
Chain of Cytochrome P450 2C19 (P33261 whole entry): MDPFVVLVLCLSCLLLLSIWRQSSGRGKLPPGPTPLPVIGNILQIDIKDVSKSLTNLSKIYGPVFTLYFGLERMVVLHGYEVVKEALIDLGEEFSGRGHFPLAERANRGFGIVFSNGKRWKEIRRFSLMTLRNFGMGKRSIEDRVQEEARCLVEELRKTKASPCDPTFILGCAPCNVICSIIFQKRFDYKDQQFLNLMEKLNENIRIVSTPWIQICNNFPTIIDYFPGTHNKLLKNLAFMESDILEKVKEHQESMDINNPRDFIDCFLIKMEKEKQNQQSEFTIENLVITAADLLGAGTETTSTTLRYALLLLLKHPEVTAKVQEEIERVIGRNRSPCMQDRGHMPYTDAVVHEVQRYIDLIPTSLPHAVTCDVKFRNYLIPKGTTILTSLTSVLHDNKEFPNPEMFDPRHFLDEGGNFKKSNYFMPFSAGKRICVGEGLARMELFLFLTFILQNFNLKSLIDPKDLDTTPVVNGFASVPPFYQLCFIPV

Cytochrome P450 1A2 = target: T4, Cytochrome P450 1A2 (Homo sapiens, UniProt P05177); test: Inhibition of CYP1A2 in human liver microsomes using phenacetin as substrate after 15 mins by LC/MS/MS analysis; format: ADME
T4 sequence (P05177 whole entry): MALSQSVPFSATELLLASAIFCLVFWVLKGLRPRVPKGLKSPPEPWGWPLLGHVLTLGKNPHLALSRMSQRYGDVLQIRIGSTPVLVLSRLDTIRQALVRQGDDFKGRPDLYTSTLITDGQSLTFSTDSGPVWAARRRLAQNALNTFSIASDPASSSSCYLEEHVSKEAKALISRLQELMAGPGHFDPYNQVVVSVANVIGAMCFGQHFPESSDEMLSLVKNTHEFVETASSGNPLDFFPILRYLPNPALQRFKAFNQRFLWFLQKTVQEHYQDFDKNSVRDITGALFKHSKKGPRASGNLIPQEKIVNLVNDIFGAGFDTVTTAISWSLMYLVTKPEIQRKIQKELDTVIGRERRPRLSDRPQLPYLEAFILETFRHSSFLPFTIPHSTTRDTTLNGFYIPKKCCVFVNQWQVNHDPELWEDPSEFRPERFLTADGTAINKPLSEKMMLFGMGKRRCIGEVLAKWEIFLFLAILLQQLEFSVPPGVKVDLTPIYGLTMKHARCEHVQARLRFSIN

Cytochrome P450 2D6 = Cytochrome P450 2D6 (Homo sapiens, UniProt P10635); test: Inhibition of CYP2D6 in human liver microsomes using dextromethorphan as substrate after 15 mins by LC/MS/MS analysis; format: ADME
Chain of Cytochrome P450 2D6 (P10635 whole entry): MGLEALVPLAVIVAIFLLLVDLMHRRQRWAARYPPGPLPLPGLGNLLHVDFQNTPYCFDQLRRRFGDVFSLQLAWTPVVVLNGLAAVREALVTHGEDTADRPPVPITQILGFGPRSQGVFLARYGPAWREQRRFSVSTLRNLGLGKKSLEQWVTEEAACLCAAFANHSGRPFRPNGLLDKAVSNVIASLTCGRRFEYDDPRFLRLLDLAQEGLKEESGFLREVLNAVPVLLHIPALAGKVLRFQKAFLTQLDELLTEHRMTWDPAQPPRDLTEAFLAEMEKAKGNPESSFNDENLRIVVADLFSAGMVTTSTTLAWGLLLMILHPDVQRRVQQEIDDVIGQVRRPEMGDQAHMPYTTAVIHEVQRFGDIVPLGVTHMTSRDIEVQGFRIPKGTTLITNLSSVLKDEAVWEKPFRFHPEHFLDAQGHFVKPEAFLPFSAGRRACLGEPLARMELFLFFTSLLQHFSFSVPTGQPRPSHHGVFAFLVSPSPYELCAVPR

Cytochrome P450 2C8 = target: T5, Cytochrome P450 2C8 (Homo sapiens, UniProt P10632); test: Inhibition of CYP2C8 in human liver microsomes using paclitaxel as substrate after 15 mins by LC/MS/MS analysis; format: ADME
T5 sequence (P10632 whole entry): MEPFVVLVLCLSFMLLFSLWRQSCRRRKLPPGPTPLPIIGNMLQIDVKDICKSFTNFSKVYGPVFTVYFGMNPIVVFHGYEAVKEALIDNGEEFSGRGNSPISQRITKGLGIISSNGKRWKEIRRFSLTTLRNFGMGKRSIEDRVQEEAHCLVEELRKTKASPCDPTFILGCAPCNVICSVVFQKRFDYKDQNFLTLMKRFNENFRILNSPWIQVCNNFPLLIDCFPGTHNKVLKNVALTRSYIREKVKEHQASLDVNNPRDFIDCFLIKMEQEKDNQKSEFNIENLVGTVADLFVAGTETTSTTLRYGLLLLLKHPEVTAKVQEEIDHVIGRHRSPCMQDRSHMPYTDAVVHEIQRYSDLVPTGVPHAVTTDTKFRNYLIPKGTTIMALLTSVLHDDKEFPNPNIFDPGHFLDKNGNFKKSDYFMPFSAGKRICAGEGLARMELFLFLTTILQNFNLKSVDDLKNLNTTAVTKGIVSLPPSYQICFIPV

Cytochrome P450 2C9 = Cytochrome P450 2C9 (Homo sapiens, UniProt P11712); test: Inhibition of CYP2C9 in human liver microsomes using diclofenac as substrate after 15 mins by LC/MS/MS analysis; format: ADME
Chain of Cytochrome P450 2C9 (P11712 whole entry): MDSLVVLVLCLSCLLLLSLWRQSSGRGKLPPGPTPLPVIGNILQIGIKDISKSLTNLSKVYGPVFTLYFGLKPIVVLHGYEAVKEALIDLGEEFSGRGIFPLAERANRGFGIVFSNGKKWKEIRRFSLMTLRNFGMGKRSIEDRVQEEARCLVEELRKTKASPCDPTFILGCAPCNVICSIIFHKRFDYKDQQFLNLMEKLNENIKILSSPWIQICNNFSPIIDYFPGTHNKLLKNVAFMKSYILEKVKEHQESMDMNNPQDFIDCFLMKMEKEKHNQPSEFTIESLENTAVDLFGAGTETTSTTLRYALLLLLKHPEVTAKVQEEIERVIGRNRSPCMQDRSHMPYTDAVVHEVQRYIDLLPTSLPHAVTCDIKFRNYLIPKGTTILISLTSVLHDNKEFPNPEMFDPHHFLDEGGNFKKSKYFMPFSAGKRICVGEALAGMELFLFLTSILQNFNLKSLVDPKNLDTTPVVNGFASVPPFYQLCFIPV

in vitro [9] = details: human, liver microsomes
Description: Extraction ratio in human liver microsomes at 1 uM upto 60 mins in presence of NDPH by LC/MS/MS analysis

in vitro [10] = details: rat, liver microsomes
Description: Extraction ratio in rat liver microsomes at 1 uM upto 60 mins in presence of NDPH by LC/MS/MS analysis

CYP3A4 [11] = target: T6, CYP3A4 (Homo sapiens, UniProt P08684); test: Inhibition of CYP3A4 in human liver microsomes using midazolam as substrate assessed as reduction in 4-OH-midazolam formation at 0.01 uM by LC/MS/MS analysis; details: probe midazolam
T6 sequence (P08684 whole entry): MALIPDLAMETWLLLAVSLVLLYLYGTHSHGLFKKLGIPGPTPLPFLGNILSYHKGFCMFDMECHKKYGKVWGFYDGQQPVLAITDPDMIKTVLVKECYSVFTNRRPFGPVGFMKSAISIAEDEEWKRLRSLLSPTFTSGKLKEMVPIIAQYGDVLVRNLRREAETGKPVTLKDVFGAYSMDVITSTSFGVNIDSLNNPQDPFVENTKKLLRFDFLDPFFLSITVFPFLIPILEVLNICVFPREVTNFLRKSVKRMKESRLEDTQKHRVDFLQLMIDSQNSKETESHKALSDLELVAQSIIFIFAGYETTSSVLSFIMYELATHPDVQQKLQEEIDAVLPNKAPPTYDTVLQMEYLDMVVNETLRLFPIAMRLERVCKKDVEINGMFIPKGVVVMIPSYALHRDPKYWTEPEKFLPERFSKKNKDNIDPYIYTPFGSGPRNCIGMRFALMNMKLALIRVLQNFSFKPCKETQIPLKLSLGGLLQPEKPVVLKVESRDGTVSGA

CYP3A4 [12] = target: T6, CYP3A4; test: Inhibition of CYP3A4 in human liver microsomes using midazolam as substrate assessed as reduction in 4-OH-midazolam formation at 0.02 uM by LC/MS/MS analysis; details: probe midazolam
CYP3A4 [13] = target: T6, CYP3A4; test: Inhibition of CYP3A4 in human liver microsomes using midazolam as substrate assessed as reduction in 1-OH-midazolam formation at 0.02 uM by LC/MS/MS analysis; details: probe midazolam
CYP3A4 [14] = target: T6, CYP3A4; test: Inhibition of CYP3A4 in human liver microsomes using midazolam as substrate assessed as reduction in 1-OH-midazolam formation at 0.01 uM by LC/MS/MS analysis; details: probe midazolam

| Structure (SMILES) | IC50 (P2X purinoceptor 7 [1]) [nM] | solubility at 72 h [3] [µM] | fraction unbound at 6 h, 1 µM [4] | solubility at 72 h [5] [µM] | fraction unbound at 6 h, 1 µM [7] | IC50 (P2X purinoceptor 7 [8]) [nM] | also measured |
| --- | --- | --- | --- | --- | --- | --- | --- |
| O=C(c1cccc(C(F)(F)F)c1Cl)N1CCc2c(ncn2-c2ccccn2)C1 | 4 |  |  |  |  |  |  |
| O=C(c1cccc(C(F)(F)F)c1F)N1CCc2c(ncn2-c2ccc(F)cn2)C1 |  |  |  |  |  |  | IC50 (P2X purinoceptor 7 [2]): > 10000 nM |
| C[C@@H]1c2ncn(-c3ncc(F)cn3)c2CCN1C(=O)c1cccc(C(F)(F)F)c1Cl |  | 4 (≈ 1.76 µg/mL) | 0.038 | > 400 | 0.048 | 38 | IC50 [6]: > 10 µM; IC50 (Cytochrome P450 2C19): 7.8 µM |
| C[C@@H]1c2ncn(-c3ccccn3)c2CCN1C(=O)c1cccc(C(F)(F)F)c1Cl |  | 20 (≈ 8.42 µg/mL) | 0.026 | > 400 | 0.047 | 20 | IC50 [6]: > 10 µM; IC50 (Cytochrome P450 1A2): > 10 µM; IC50 (Cytochrome P450 2D6): > 10 µM; IC50 (Cytochrome P450 2C8): > 10 µM; IC50 (Cytochrome P450 2C19): > 10 µM; IC50 (Cytochrome P450 2C9): > 10 µM |
| O=C(c1cccc(C(F)(F)F)c1Cl)N1CCc2c(ncn2-c2ccccc2)C1 |  |  |  |  |  |  | hepatic extraction ratio at 1 h, 1 µM (in vitro [9]): 0.94; hepatic extraction ratio at 1 h, 1 µM (in vitro [10]): 0.89 |
| CC1c2ncn(-c3cnccn3)c2CCN1C(=O)c1cccc(C(F)(F)F)c1Cl (configuration not stated) | 77 |  |  |  |  |  | hepatic extraction ratio at 1 h, 1 µM (in vitro [9]): 0.77; hepatic extraction ratio at 1 h, 1 µM (in vitro [10]): 0.84; IC50 (P2X purinoceptor 7 [2]): 1230 nM |
| O=C(c1cccc(C(F)(F)F)c1Cl)N1CCc2c(ncn2-c2cnccn2)C1 | 9 |  |  |  |  |  |  |
| C[C@@H]1c2ncn(-c3ccc(F)cc3)c2CCN1C(=O)c1cccc(C(F)(F)F)c1Cl |  | 14 (≈ 6.13 µg/mL) | 0.025 | 165 (≈ 72.2 µg/mL) | 0.04 | 45 |  |
| CC1c2ncn(-c3ncccc3F)c2CCN1C(=O)c1cccc(C(F)(F)F)c1Cl (configuration not stated) | 9 |  |  |  |  |  |  |
| CC(=O)N1CCN(c2ccc(OCC3COC(Cn4ccnc4)(c4ccc(Cl)cc4Cl)O3)cc2)CC1 (configuration not stated) [KETOCONAZOLE] |  |  |  |  |  |  | inhibition at 0.01 µM (CYP3A4 [11]): 57%; inhibition at 0.02 µM (CYP3A4 [12]): 74%; inhibition at 0.02 µM (CYP3A4 [13]): 70%; inhibition at 0.01 µM (CYP3A4 [14]): 53% |
